Test results as given in patent publication US5334761A, “Cationic lipids” (Life Technologies, Inc., priority 1992, dated 1994).
Where a name gives a salt, the structure may show the parent alone.

Key:
COS-7 cells = experiment: CAT transient transfection; assay type: cell-based
Experimental: (§1) A one-to-one mixture (by weight) of the desired lipid and dioleylphosphatidyl ethanolamine was prepared in CHCl3. The CHCl3 was removed on the rotary evaporator to obtain a thin film of lipid mixture. The mixture was hydrated with enough water to obtain approximately 1.25 mg of lipid per ml of solution. The solution was passed through a microfluidizer twice and diluted to 1 mg/ml. The liposome formulation was then filtered through a 0.2 μ filter. Compound 8 was also formulated without DOPE either by sonication at 1 mg/ml in water or by dissolving a dried lipid film with ethanol and then adding water to give a final concentration of 2.5 mg/ml. Ethanol was 10% of that volume. In some instances, this was further diluted with water to 1 mg/ml, 4% ethanol.
(§2) Baby hamster kidney (BHK-21) , COS-7, HeLa-S3 cells, and normal human fibroblasts isolated from newborn foreskin dermis were grown in Dulbecco's-modified Eagle's medium (DMEM) containing 10% fetal bovine serum (FBS), 2 mM L-glutamine (gln), 0.1 mM MEM nonessential amino acids (NEAA), 100 U/ml penicillin, and 100 μg/ml streptomycin. NIH-3T3 cells were grown in DMEM containing 10% calf serum (CS), 2 mMgln, 0.1 mM NEAA 100 U/ml penicillin, and 100 μg/ml streptomycin. PC12 cells were grown in DMEMcontaining 10% horse serum, 5% FBS, 2 mM gln, 0 1 mMNEAA, 100 U/ml penicillin and 100 μ/ml streptomycin. Jurkat cells (human lymphoid cell line) were grown in RPMI-1640 supplemented with 10% FBS, 2mML-glutamine, 100 U/ml penicillin, and 100 μg/ml streptomycin. Human keratinocytes were isolated from newborn foreskin epidermis and cultured in Keratinocyte Growth Medium (Clonetics, San Diego, Ca.). All cell lines were maintained in a humidified incubator with a 5% CO2 atmosphere at 37° C.
(§3) pSV2CAT (5.0 Kb) was described previously (Gorman, C. M. et al. (1982) Mol. Cell. Biol. 2:1044). pCMVCAT (5.0 Kb) was also described previously (Foecking M. K. and Hofstetter, H. (1986) Gene 45:101). Plasmid DNA was purified by isopycnic centrifugation in CsCl/EtBr gradients after recovery by alkaline lysis (Maniatis, T. et al. (1982) in Molecular Cloning: A Laboratory Manual, Cold Spring Harbor Laboratory, Cold Spring Harbor, N.Y., pp. 90-91).
(§4) For transient transfection of pSV2CAT DNA or pCMVCAT DNA, cells were plated in 6-well tissue culture dishes (35 mm wells) and incubated overnight to approximately 60% confluency. To transfect cells in one well, 1-2 μg of pSV2CAT DNA or pCMVCAT DNA was diluted in 100 μl Opti-MEM I. Cationic lipids were diluted separately in another 100 μl aliquot of Opti-MEM I. The two solutions were then mixed in a polystyrene tube, incubated for 10-15 min at room temperature to allow the formation of a DNA-liposome complex, and diluted to one ml by adding 0.8 ml Opti-MEM I or DMEM containing 5% fetal bovine serum (FBS), 2 mMgln, 0.1 mMNEAA, and lacking antibiotics. The cells were washed once with Opti-MEM I or serum-free DMEM, and the DNA-liposome complex was added directly to the cells. After a six hr incubation at 37° C., the transfection complexes were removed and two ml of DMEM containing 10% FBS, 2 mMgln, 0.2 mMNEAA, 100 U/ml penicillin, and 100 μg/ml streptomycin, was added to each well. Note: human keratinocytes were cultured and transfected in Keratinocyte Growth Medium. Cells were incubated for an additional 48 hrs and lysed in situ by freeze-thawing once or twice in 300 μl 0.1M Tris-HC1, pH 7.8-8.0 containing 0 1% Triton X-100. Cell lysates were assayed for CAT activity.
(§5) Cell lysates were assayed for CAT activity as described by Neumann et al. (1987) BioTechniques 5:444 using [^14 C]-butyryl coenzyme A (New England Nuclear, Boston, Mass.). The enzyme reactions were incubated for 2 hrs at 37° C., overlayed with 3.0 ml Econofluor (New England Nuclear) and then incubated for an additional 2 hrs to allow diffusion of the acetylated chloramphenicol into the scintillation fluid. CAT activity was determined by measuring radioactivity in a liquid scintillation counter. […]

[1] = test system: normal human keratinocytes; experiment: CAT transient transfection; assay type: cell-based; conditions: keratinocytes
Experimental: as §1, §2, §3, §4, §5

normal human fibroblasts = experiment: CAT transient transfection; assay type: cell-based
Experimental: as §1, §2, §3, §4, §5

[2] = test system: normal human keratinocytes; experiment: % protein (toxicity estimate, Bradford) after transfection; assay type: cell-based
Experimental: as §1
as §2, with “C. […]” for “C.”
(§6) The "% protein" column indicates the relative amount of protein in the sample tested for CAT activity and therefore provides a way to estimate toxicity of the compounds being tested. […] Protein was measured using a commercially available Bradford protein assay (BioRad Laboratories, Richmond, Ca.). […]

NIH-3T3 cells [3] = experiment: CAT transient transfection; assay type: cell-based, mouse
Experimental: as §1, §2, §3, §4, §5

BHK-21 cells [4] = experiment: CAT transient transfection; assay type: cell-based, baby hamster
Experimental: as §1
(§7) Baby hamster kidney (BHK-21) , COS-7, HeLa-S3 cells, and normal human fibroblasts isolated from newborn foreskin dermis were grown in Dulbecco's-modified Eagle's medium (DMEM) containing 10% fetal bovine serum (FBS), 2 mM L-glutamine (gln), 0.1 mM MEM nonessential amino acids (NEAA), 100 U/ml penicillin, and 100 μg/ml streptomycin. […]
(§8) Cell lysates were assayed for CAT activity as described by Neumann et al. (1987) BioTechniques 5:444 using [^14 C]-butyryl coenzyme A (New England Nuclear, Boston, Mass.). […] CAT activity was determined by measuring radioactivity in a liquid scintillation counter. […]

BHK-21 cells [5] = experiment: % protein (toxicity estimate, Bradford) after transfection; assay type: cell-based, baby hamster
Experimental: as §1, §7, §6

PC12 cells = experiment: CAT transient transfection; assay type: cell-based, rat
Experimental: as §1, §7, §8

NIH-3T3 cells [6] = experiment: % protein (toxicity estimate, Bradford) after transfection; assay type: cell-based, mouse
Experimental: as §1, §7, §6

## CCCCCCCC/C=C\CCCCCCCCOCC(C[N+](C)(C)CCNC(=O)C(CCCNCCCN)NCCCN)OCCCCCCCC/C=C\CCCCCCCC (stereo not drawn) [Compound 8, 1-Propanaminium, N-[2-[[2,5-bis[(3-amino]-1-oxopentyl]amino]ethyl]-n,n-dimethyl-2,3,-bis(9-octadecenyloxy)-, tetra(trifluoroacetate) salt]
COS-7 cells; 12 μg lipid, 1 μg pSV2CAT, 6 h DMEM
  CAT ACTIVITY: 14,282 CPM/150 ul
COS-7 cells; Cos-7
  DNA transfection (in words): highly effective
[1]
  DNA transfection (in words): highly effective
Normal human fibroblasts
  DNA transfection (in words): successfully transfected
[2]
  toxicity (in words): minimal toxicity
NIH-3T3 cells [3]; 15 μg lipid, 2 μg pCMVCAT, 6 h DMEM
  CAT ACTIVITY: 30,488 CPM/150 ul
NIH-3T3 cells [3]; NIH-3T3
  DNA transfection (in words): highly effective
BHK-21 cells [4]
  DNA transfection (in words): highly effective
BHK-21 cells [5]
  toxicity (in words): minimal toxicity
PC12 cells; 40 μg lipid, 2 μg pCMVCAT, 6 h DMEM
  CAT ACTIVITY: 28,512 CPM/150 ul
PC12 cells; PC12
  DNA transfection (in words): highly effective
NIH-3T3 cells [6]
  toxicity (in words): minimal toxicity
